Data published in patent publication US7575909B2, “Oxidoreductase from pichia capsulata” (IEP GmbH, priority 2003, dated 2009).

What was measured:
[1] = test system: oxidoreductase according to the invention; assay: Substrate spectrum (relative enzyme activity with different substrates); type: biochemical, Pichia capsulata; conditions: activity with ethyl-4-chloroacetoacetate = 100%
Protocol: Incubation lasted for about 2 to 3 min, thereupon 100 μl of a substrate solution (100 mM ethyl-4-chloro-3-oxobutanoate were added.
The substrate spectrum of the oxidoreductase according to the invention was determined by measuring the enzyme activity with a number of ketones, oxoacids and esters thereof. […] The activity with ethyl-4-chloroacetoacetate was equalled to 100% and all the other substrates were set in relation thereto.

[2] = test system: oxidoreductase according to the invention; assay: Enantiomeric excess of the alcohol formed from selected substrates (GC); type: biochemical, Pichia capsulata; conditions: 24 h
Protocol: For the determination of the ee-value, the following reaction batch was used for selected substrates.
The batches for ee-determination were extracted with chloroform after 24 h and the enantiomeric excess of the resulting alcohol was determined via GC.

[3] = test system: recombinant oxidoreductase from Pichia capsulata; assay: Preparative conversions with recombinant oxidoreductase; type: biochemical; conditions: for enantiomeric excess of the recovered product: preparative batch, 24 h at room temperature; for share of the substrate used that was reduced: after 24 h at room temperature, isopropanol as cosubstrate, NAD
Protocol: For the preparative batch, a mixture of […] of a buffer (100 mM TEA, pH=7, 1 mM ZnCl2, 10% glycerol), 4 1 isopropanol, 4 1 4-chloroacetoacetate, 4 g NAD and 3.6 million U of recombinant oxidoreductase from Pichia capsulata was incubated for 24 h at room temperature under constant mixing. […] Subsequently, the reaction mixture was extracted with ethyl acetate, the solvent was removed by means of a rotary evaporator and the raw product was distilled.
For the preparative batch, a mixture of 164 ml of a buffer (100 mM TEA, pH=7, 1 mM ZnCl2, 20% glycerol), 16 ml isopropanol, 20 g 2-chloro-1-(3-chlorophenyl)ethane-1-one dissolved in 20 ml methyl tert-butyl ether (MTBE), 10 mg NAD and 20,000 U of recombinant oxidoreductase from Pichia capsulata was incubated for 24 h at room temperature under constant mixing. […] Subsequently, the reaction mixture was extracted with ethyl acetate, and the solvent was removed using the rotary evaporator.

CC(=O)Cc1ccccc1 [1-Phenyl-2-propanone]
Relative activity % [1]: 24% | Stereoselectivity ([2]; S-alcohol in excess): 97% S

CCCCCC(=O)CC [3-Octanone]
Relative activity % [1]: 30%

COC(=O)CCCCC(=O)CC(=O)OC [Dimethyl-3-oxo-1,8-octandioic acid]
Relative activity % [1]: 3.5%

O[C@@H](CCl)c1cccc(Cl)c1 [(R)-2-chloro-1-(3-chlorophenyl)ethane-1-ol]
enantiomeric excess of the recovered product [3]: 100%

O=C(O)C(=O)Cc1ccccc1 [2-Oxo-3-phenyl propionic acid]
Relative activity % [1]: 0%

CCCCCCC(C)=O [2-Octanone]
Relative activity % [1]: 88% | Stereoselectivity ([2]; S-alcohol in excess): 100% S

CCOC(=O)CCCCC(=O)CCCl [Ethyl-8-chloro-6-oxooctanoic acid]
Relative activity % [1]: 20% | Stereoselectivity ([2]; R-alcohol in excess): 100% R

CCCC(=O)C(=O)OCC [Ethyl-2-oxovaleriate]
Relative activity % [1]: 41% | Stereoselectivity ([2]; S-alcohol in excess): 97% S

CCOC(=O)CC(=O)CC [Ethyl-3 oxovaleriate]
Relative activity % [1]: 67%

CCOC(=O)CC(C)=O [Ethyl acetoacetate]
Relative activity % [1]: 100% | Stereoselectivity ([2]; S-alcohol in excess): 99% S

CCOC(=O)C[C@@H](O)CCl [ethyl-(R)-4-chloro-3-hydroxybutanoate]
enantiomeric excess of the recovered product [3]: 99%

CCOC(=O)C(=O)CCc1ccccc1 [Ethyl-2-oxo-4-phenylbutanoic acid]
Relative activity % [1]: 76% | Stereoselectivity ([2]; S-alcohol in excess): 95% S

COC(=O)CC(C)=O [Methyl acetoacetate]
Relative activity % [1]: 150% | Stereoselectivity ([2]; S-alcohol in excess): 97% S

CCCC(=O)C(=O)O [2-Oxovaleric acid]
Relative activity % [1]: 0%

CC(=O)c1ccccc1 [Acetophenone]
Relative activity % [1]: 4%

CCOC(=O)CC(=O)CCl [Ethyl-4-chloroacetoacetate]
share of the substrate used that was reduced [3]: 99% | Relative activity % [1]: 100% | Stereoselectivity ([2]; R-alcohol in excess): 99% R

CCCCCCCC(=O)c1ccccc1 [Caprylophenone]
Relative activity % [1]: 0%

CCC(C)=O [2-Butanone]
Relative activity % [1]: 99% | Stereoselectivity ([2]; S-alcohol in excess): 50% S

CC(=O)CCO [4-Hydroxy-2-butanone]
Relative activity % [1]: 99% | Stereoselectivity ([2]; S-alcohol in excess): 90% S

CCOC(=O)C(=O)c1ccccc1 [Ethyl phenyl glyoxylate]
Relative activity % [1]: 5.2% | Stereoselectivity ([2]; R-alcohol in excess): 100% R

CCOC(=O)C(C)=O [Ethyl pyruvate]
Relative activity % [1]: 10% | Stereoselectivity ([2]; S-alcohol in excess): 100% S

CCC(=O)C(=O)O [2-Oxobutanoic acid]
Relative activity % [1]: 0%

O=C(CCl)c1cccc(Cl)c1 [2-Chloro-1-(3-chlorophenyl)ethane-1-one]
share of the substrate used that was reduced [3]: 96% | Relative activity % [1]: 21% | Stereoselectivity ([2]; R-alcohol in excess): 100% R
